Read-outs that look alike come from different tables or passages of the source.
System: SH-SY5Y M-currents (KCNQ2, KCNQ3 and KCNQ5)
Assay: SH-SY5Y native cell line FLIPR assay (voltage-sensitive dye DiBAC)
Type: cell-based, mouse neuroblastoma, rat glioma hybrid cell line
Conditions: SH-SY5Y native cell line, read-out: SH-SY5Y EC50
Excerpt: SH-SY5Y cells, a mouse neuroblastoma, rat glioma hybrid cell line, functionally express M-currents (Robbins et al., J. Physiol. 451: 159-85 (1992). SH-SY5Y M-currents are likely comprised, at least in part, of KCNQ2, KCNQ3 and KCNQ5, since these genes are reportedly robustly expressed in differentiated SH-SY5Y cells (Selyanko et al., J. Neurosci. 19(18): 7742-56 (1999); Schroeder et al., J. Biol. Chem. 275(31): 24089-95 (2000)) and KCNQ3 dominant-negative constructs reduce M-current density in these cells (Selyanko et al., J. Neurosci. 22(5): RC212 (2002).
SH-SY5Y were maintained in DMEM (high glucose) supplemented with 10% fetal bovine serum, 0.05 mM pyridoxine, 0.1 mM hypoxanthine, 400 nM aminopterin, […], 50 μgml^−1 gentamycin and 10 mM HEPES, in an incubator at 37° C. with a humidified atmosphere of 5% CO2. Cells were plated in 96 well plates differentiated by addition of 10 μM PGE1 and 50 μM isomethylbutylxanthine to the growth media prior to study.
Differentiated SH-SY5Y cells were loaded with voltage-sensitive dye by incubation in Earls Balanced Salt Solution (EBSS) containing […] DiBAC for 1 h. Following loading, drug solution containing […] DiBAC was added to each well. Changes in fluorescence were measured every 30 s for 25 min. The maximum change in fluorescence was measured and expressed as a percentage of the maximum response obtained in the presence of a positive control agent.

Row | SMILES | EC50 (FLIPR assay, Table 2) | further results
1 | CC(C)CCc1c(NC(=O)Cc2cccc(Cl)c2)nc2ccc(C(F)(F)F)cn12 [Compound 42, 2-(3-chlorophenyl)-N-(3-isopentyl-6-(trifluoromethyl)imidazo[1,2-a]pyridin-2-yl)acetamide] |  | EC50 (FLIPR assay, Table 1): < 500 nM
2 | CC(C)(C)OCCC(=O)Nc1nc2ccc(F)cn2c1-c1cccc(C(F)(F)F)c1 [Compound 287, 3-tert-butoxy-N-(6-fluoro-3-(3-(trifluoromethyl)phenyl)imidazo[1,2-a]pyridin-2-yl)propanamide] | 500 to 3000 nM | 
3 | CC(=O)Nc1nc2ccc(C(F)(F)F)cn2c1CC(C)(C)C [Compound 62, N-(3-neopentyl-6-(trifluoromethyl)imidazo[1,2-a]pyridin-2-yl)acetamide] |  | EC50 (FLIPR assay, Table 1): 3000 to 10000 nM
4 | Cc1ccc2nc(NC(=O)CC(C)(C)C)c(CC(C)(C)C)n2n1 [Compound 67, 3,3-dimethyl-N-(6-methyl-3-neopentylimidazo[1,2-b]pyridazin-2-yl)butanamide] |  | EC50 (FLIPR assay, Table 1): < 500 nM
5 | CC(CC(=O)Nc1nc2ccc(F)cn2c1-c1cccc(C(F)(F)F)c1)C(F)(F)F (stereo not shown) [Compound 282, 4,4,4-trifluoro-N-(6-fluoro-3-(3-(trifluoromethyl)phenyl)imidazo[1,2-a]pyridin-2-yl)-3-methylbutanamide] | < 500 nM | 
6 | Cc1c(F)ccc(-c2c(NC(=O)CC(C)(C)C)nc3ccc(F)cn23)c1F [Compound 256, N-(3-(2,4-difluoro-3-methylphenyl)-6-fluoroimidazo[1,2-a]pyridin-2-yl)-3,3-dimethylbutanamide] | 500 to 3000 nM | 
7 | O=C(Nc1nc2ccc(C(F)(F)F)cn2c1C1CCCCC1)C1CCCC1 [Compound 54, N-(3-cyclohexyl-6-(trifluoromethyl)imidazo[1,2-a]pyridin-2-yl)cyclopentanecarboxamide] |  | EC50 (FLIPR assay, Table 1): < 500 nM
8 | CC(C)(C)CC(=O)Nc1nc2ccc(F)cn2c1-c1cccc(C(C)(C)C#N)c1 [Compound 176, N-(3-(3-(2-cyanopropan-2-yl)phenyl)-6-fluoroimidazo[1,2-a]pyridin-2-yl)-3,3-dimethylbutanamide] | 500 to 3000 nM | 
9 | CC(CC(=O)Nc1nc2ccc(F)cn2c1-c1ccc(F)cn1)C(F)(F)F (stereo not shown) [Compound 369, 4,4,4-trifluoro-N-(6-fluoro-3-(5-fluoropyridin-2-yl)imidazo[1,2-a]pyridin-2-yl)-3-methylbutanamide] |  | EC50 (FLIPR assay (Table 3)): 3000 to 10000 nM
10 | Cc1cccc2nc(NC(=O)Cc3ccc(F)cc3)c(-c3nc4ccccc4s3)n12 [Compound 393, N-(3-(benzo[d]thiazol-2-yl)-5-methylimidazo[1,2-a]pyridin-2-yl)-2-(4-fluorophenyl)acetamide] |  | EC50 (FLIPR assay (Table 3)): 500 to 3000 nM
11 | O=C(CC1CCCC1)Nc1nc2ccc(F)cn2c1-c1nc2ccccc2s1 [Compound 380, N-(3-(benzo[d]thiazol-2-yl)-6-fluoroimidazo[1,2-a]pyridin-2-yl)-2-cyclopentylacetamide] |  | EC50 (FLIPR assay (Table 3)): 500 to 3000 nM
12 | COc1ccc2nc(NC(=O)CC(C)(C)C)c(-c3cccc(C(F)(F)F)c3)n2n1 [Compound 339, N-(6-methoxy-3-(3-(trifluoromethyl)phenyl)imidazo[1,2-b]pyridazin-2-yl)-3,3-dimethylbutanamide] | 500 to 3000 nM | 
13 | COc1cccc(-c2c(NC(=O)CC(C)(C)C)nc3ccc(F)cn23)n1 [Compound 367, N-(6-fluoro-3-(6-methoxypyridin-2-yl)imidazo[1,2-a]pyridin-2-yl)-3,3-dimethylbutanamide] |  | EC50 (FLIPR assay (Table 3)): 500 to 3000 nM
14 | CC(C)(C)CC(=O)Nc1nc2ccc(F)cn2c1-c1ccc(C#N)cc1 [Compound 177, N-(3-(4-cyanophenyl)-6-fluoroimidazo[1,2-a]pyridin-2-yl)-3,3-dimethylbutanamide] | 500 to 3000 nM | 
15 | CC(C)(C)Cc1c(NC(=O)CC(C)(C)C(F)(F)F)nc2ccc(C(F)(F)F)cn12 [Compound 440, 4,4,4-trifluoro-3,3-dimethyl-N-(3-neopentyl-6-(trifluoromethyl)imidazo[1,2-a]pyridin-2-yl)butanamide] |  | EC50 (FLIPR assay (Table 6)): < 500 nM
16 | CC(C)(C)CC(=O)Nc1nc2ccc(F)cn2c1-c1ccc(C(C)(C)C#N)cc1 [Compound 175, N-(3-(4-(2-cyanopropan-2-yl)phenyl)-6-fluoroimidazo[1,2-a]pyridin-2-yl)-3,3-dimethylbutanamide] | 500 to 3000 nM | 
17 | O=C(Nc1nc2ccc(F)cn2c1-c1nccs1)C1CCC(F)(F)CC1 [Compound 391, 4,4-difluoro-N-(6-fluoro-3-(thiazol-2-yl)imidazo[1,2-a]pyridin-2-yl)cyclohexanecarboxamide] |  | EC50 (FLIPR assay (Table 3)): < 500 nM

Continued, in another order:

Row | EC50 (FLIPR assay, Table 2) | SMILES | further results
18 | < 500 nM | O=C(CC1CCC1)Nc1nc2ccc(F)cn2c1-c1ccc(OC(F)(F)F)cc1 [Compound 194, 2-cyclobutyl-N-(6-fluoro-3-(4-(trifluoromethoxy)phenyl)imidazo[1,2-a]pyridin-2-yl)acetamide] | 
19 | < 500 nM | Cc1ccn2c(-c3ccc(F)cc3)c(NC(=O)Cc3ccc(C(F)(F)F)cc3)nc2c1 [Compound 187, N-(3-(4-fluorophenyl)-7-methylimidazo[1,2-a]pyridin-2-yl)-2-(4-(trifluoromethyl)phenyl)acetamide] | 
20 | < 500 nM | CC(C)(C)CC(=O)Nc1nc2ccc(Br)cn2c1-c1ccc(F)cc1 [Compound 152, N-(6-bromo-3-(4-fluorophenyl)imidazo[1,2-a]pyridin-2-yl)-3,3-dimethyl butanamide] | 
21 | 500 to 3000 nM | CC(C(=O)Nc1nc2ccc(F)cn2c1-c1ccc(F)cc1)c1ccccc1 (stereo not shown) [Compound 109, N-(6-fluoro-3-(4-fluorophenyl)imidazo[1,2-a]pyridin-2-yl)-2-phenylpropanamide] | 
22 | 500 to 3000 nM | O=C(CC(F)(F)F)Nc1nc2ccc(F)cn2c1-c1cccc(C(F)(F)F)c1 [Compound 267, 3,3,3-trifluoro-N-(6-fluoro-3-(3-(trifluoromethyl)phenyl)imidazo[1,2-a]pyridin-2-yl)propanamide] | 
23 | < 500 nM | O=C(Cc1ccc(F)cc1)Nc1nc2ccc(F)cn2c1-c1ccc(OC(F)(F)F)c(F)c1 [Compound 296, N-(6-fluoro-3-(3-fluoro-4-(trifluoromethoxy)phenyl)imidazo[1,2-a]pyridin-2-yl)-2-(4-fluorophenyl)acetamide] | 
24 | < 500 nM | O=C(Cc1ccc(F)cc1)Nc1nc2ccc(F)cn2c1-c1cccc(OC(F)(F)F)c1 [Compound 183, N-(6-fluoro-3-(3-(trifluoromethoxy)phenyl)imidazo[1,2-a]pyridin-2-yl)-2-(4-fluorophenyl) acetamide] | 
25 | < 500 nM | O=C(Cc1cc(F)cc(F)c1)Nc1nc2ccc(F)cn2c1-c1ccc(OC(F)(F)F)cc1 [Compound 242, 2-(3,5-difluorophenyl)-N-(6-fluoro-3-(4-(trifluoromethoxy)phenyl)imidazo[1,2-a]pyridin-2-yl)acetamide] | 
26 | < 500 nM | Cc1ccc(CC(=O)Nc2nc3ccc(F)cn3c2-c2ccc(F)cc2)cc1 [Compound 143, N-(6-fluoro-3-(4-fluorophenyl)imidazo[1,2-a]pyridin-2-yl)-2-p-tolylacetamide] | 
27 | 500 to 3000 nM | O=C(Cc1ccc(F)cc1)Nc1nc2ccc(Cl)nn2c1-c1ccc(C(F)(F)F)cc1 [Compound 272, N-(6-chloro-3-(4-(trifluoromethyl)phenyl)imidazo[1,2-b]pyridazin-2-yl)-2-(4-fluorophenyl)acetamide] | 
28 | < 500 nM | O=C(Cc1ccccc1)Nc1nc2ccc(F)cn2c1-c1cccc(C(F)(F)F)c1 [Compound 165, N-(6-fluoro-3-(3-(trifluoromethyl)phenyl)imidazo[1,2-a]pyridin-2-yl)-2-phenylacetamide] | 
29 | < 500 nM | CC(C)(C)CC(=O)Nc1nc2ccc(F)cn2c1-c1cccc(C(F)(F)F)c1 [Compound 163, N-(6-fluoro-3-(3-(trifluoromethyl)phenyl)imidazo[1,2-a]pyridin-2-yl)-3,3-dimethylbutanamide] | 
30 | 500 to 3000 nM | CC(CC(=O)Nc1nc2ncc(Cl)cn2c1-c1ccc(C(F)(F)F)cc1)C(F)(F)F (stereo not shown) [Compound 318, N-(6-chloro-3-(4-(trifluoromethyl)phenyl)imidazo[1,2-a]pyrimidin-2-yl)-4,4,4-trifluoro-3-methylbutanamide] | 
31 | < 500 nM | O=C(Cc1ccc(F)cc1)Nc1nc2cc(Cl)c(Cl)cn2c1-c1ccc(C(F)(F)F)cc1 [Compound 236, N-(6,7-dichloro-3-(4-(trifluoromethyl)phenyl)imidazo[1,2-a]pyridin-2-yl)-2-(4-fluorophenyl)acetamide] | 
32 | < 500 nM | O=C(CC1CCCC1)Nc1nc2ccc(F)cn2c1-c1ccc(OC(F)(F)F)cc1 [Compound 170, 2-cyclopentyl-N-(6-fluoro-3-(4-(trifluoromethoxy)phenyl)imidazo[1,2-a]pyridin-2-yl)acetamide] | 
33 | 500 to 3000 nM | CC(C)CC(=O)Nc1nc2ccc(F)cn2c1-c1ccc(F)cc1 [Compound 133, N-(6-fluoro-3-(4-fluorophenyl)imidazo[1,2-a]pyridin-2-yl)-3-methylbutanamide] | 
34 | < 500 nM | O=C(Cc1ccc(F)cc1)Nc1nc2ccc(F)cn2c1-c1cccc(Cl)c1 [Compound 148, N-(3-(3-chlorophenyl)-6-fluoroimidazo[1,2-a]pyridin-2-yl)-2-(4-fluorophenyl)acetamide] | 

From US9018208B2, “Heterocycles as potassium channel modulators” (Icagen Inc., priority 2007, dated 2015)
